In BindingDB's records for doi:10.7270/Q2D50KGC (Burnham Center For Chemical Genomics, 2011):

target: T1, Endoribonuclease toxin MazF (Escherichia coli (strain K12), UniProt P0AE70); assay: MazF endoribonuclease activators, SAR follow-up, biochemical, fluorescence, single-stranded RNA substrate (AID 588603)
T1 sequence (P0AE70 whole entry): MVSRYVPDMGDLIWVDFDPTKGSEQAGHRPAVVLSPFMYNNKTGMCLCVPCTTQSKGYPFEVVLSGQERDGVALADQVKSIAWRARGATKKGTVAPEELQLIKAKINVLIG

Row | Compound | EC50 [µM]
1 | C=CCOc1cccc(C2C(C(=O)c3ccc(C)o3)C(=O)C(=O)N2c2nccs2)c1 (stereo not drawn) [3-(5-methylfuran-2-yl)carbonyl-4-oxidanyl-2-(3-prop-2-enoxyphenyl)-1-(1,3-thiazol-2-yl)-2H-pyrrol-5-one] | 22.3
2 | N#Cc1ccc(-n2c(O)c3[nH][nH]c(C(=O)c4ccc5ccccc5n4)c-3c2=O)cc1 [4-[(3aS,6aS)-4,6-dioxo-3-[oxo(2-quinolinyl)methyl]-3a,6a-dihydro-1H-pyrrolo[3,4-c]pyrazol-5-yl]benzonitrile] | 7.74
3 | O=C(c1ccc2ccccc2n1)c1[nH][nH]c2c(O)n(-c3cccc(F)c3)c(=O)c1-2 [(3aS,6aS)-5-(3-fluorophenyl)-3-[oxo(2-quinolinyl)methyl]-3a,6a-dihydro-1H-pyrrolo[3,4-c]pyrazole-4,6-dione] | 24.4
